Reference: PubChem BioAssay (NCI)
Several values for one entry are separate records, joined by “and”; a condition that tells them apart may be missing. Identical values can stand only once.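 The concentration for 50% growth inhibition is given as GI50. TGI: concentration producing complete growth inhibition.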

Experiments:
Assay in all cases: DTP human tumour cell line panel, 384-well format
MDA-MB-468 breast = system: MDA-MB-468 breast
OVCAR-8 ovarian = system: OVCAR-8 ovarian
PC-3 prostate = system: PC-3 prostate
786-0 renal = system: 786-0 renal
HCT-15 colon = system: HCT-15 colon
LOX IMVI melanoma = system: LOX IMVI melanoma
SF-268 CNS = system: SF-268 CNS
SR leukemia = system: SR leukemia
SN12C renal = system: SN12C renal
T-47D breast = system: T-47D breast
CAKI-1 renal = system: CAKI-1 renal
UACC-257 melanoma = system: UACC-257 melanoma
RPMI-8226 leukemia = system: RPMI-8226 leukemia
NCI-H522 lung = system: NCI-H522 lung
NCI/ADR-RES ovarian = system: NCI/ADR-RES ovarian
EKVX NSCLC = system: EKVX NSCLC
NCI-H226 lung = system: NCI-H226 lung
K-562 leukemia = system: K-562 leukemia
MDA-MB-435 melanoma = system: MDA-MB-435 melanoma
SK-MEL-28 melanoma = system: SK-MEL-28 melanoma
BT-549 breast = system: BT-549 breast
SK-OV-3 ovarian = system: SK-OV-3 ovarian
M14 melanoma = system: M14 melanoma
NCI-H23 lung = system: NCI-H23 lung
OVCAR-3 ovarian = system: OVCAR-3 ovarian
HCT-116 colon = system: HCT-116 colon
MOLT-4 leukemia = system: MOLT-4 leukemia
OVCAR-4 ovarian = system: OVCAR-4 ovarian
ACHN renal = system: ACHN renal
A549 NSCLC = system: A549 NSCLC
HL-60(TB) leukemia = system: HL-60(TB) leukemia
U251 glioblastoma = system: U251 glioblastoma
HCC-2998 colon = system: HCC-2998 colon
HOP-62 NSCLC = system: HOP-62 NSCLC
MDA-MB-231 breast = system: MDA-MB-231 breast
SF-539 CNS = system: SF-539 CNS
DU-145 prostate = system: DU-145 prostate
MALME-3M melanoma = system: MALME-3M melanoma
HT29 colon = system: HT29 colon
SNB-75 CNS = system: SNB-75 CNS
MCF7 breast = system: MCF7 breast
UACC-62 melanoma = system: UACC-62 melanoma
SNB-19 CNS = system: SNB-19 CNS
SK-MEL-5 melanoma = system: SK-MEL-5 melanoma
HOP-92 NSCLC = system: HOP-92 NSCLC
IGROV1 ovarian = system: IGROV1 ovarian
UO-31 renal = system: UO-31 renal
TK-10 renal = system: TK-10 renal
CCRF-CEM leukemia = system: CCRF-CEM leukemia
SW-620 colon = system: SW-620 colon
SF-295 CNS = system: SF-295 CNS
A498 renal = system: A498 renal
NCI-H322M lung = system: NCI-H322M lung
NCI-H460 NSCLC = system: NCI-H460 NSCLC
KM12 colon = system: KM12 colon
RXF 393 renal = system: RXF 393 renal
COLO 205 colon = system: COLO 205 colon
HS 578T breast = system: HS 578T breast

Cc1cc(C(=O)NC(CCC(=O)O)C(=O)O)sc1CCC1CNc2nc(N)[nH]c(=O)c2C1 (stereo unspecified)
GI50 (MDA-MB-468 breast): 0.0175 µM and 0.0176 µM | TGI (MDA-MB-468 breast): 0.0339 µM and 0.0375 µM | GI50 (OVCAR-8 ovarian): < 0.01 µM | TGI (OVCAR-8 ovarian): < 0.01 µM and 0.0116 µM | GI50 (PC-3 prostate): < 0.01 µM | TGI (PC-3 prostate): < 0.01 µM | GI50 ([…]-0 renal): < 0.01 µM | TGI (786-0 renal): < 0.01 µM | GI50 (HCT-15 colon): 0.025 µM and 0.0314 µM | TGI (HCT-15 colon): 0.0733 µM and 0.158 µM | GI50 (LOX IMVI melanoma): 0.0194 µM and 0.02 µM | TGI (LOX IMVI melanoma): 0.0407 µM and 0.0444 µM | GI50 (SF-268 CNS): < 0.01 µM | TGI (SF-268 CNS): < 0.01 µM and 0.0187 µM | GI50 (SR leukemia): > 100 µM | TGI (SR leukemia): > 100 µM | GI50 (SN12C renal): < 0.01 µM | TGI (SN12C renal): < 0.01 µM and 0.0234 µM | GI50 (T-47D breast): 0.0238 µM and 0.0303 µM | TGI (T-47D breast): > 100 µM | GI50 (CAKI-1 renal): < 0.01 µM | TGI (CAKI-1 renal): < 0.01 µM | GI50 (UACC-257 melanoma): 0.0129 µM and 0.0183 µM | TGI (UACC-257 melanoma): 0.0365 µM and 0.0469 µM | GI50 (RPMI-8226 leukemia): 0.0177 µM and 0.0171 µM | TGI (RPMI-8226 leukemia): 0.0354 µM and 0.036 µM | GI50 (NCI-H522 lung): < 0.01 µM and 0.0176 µM | TGI (NCI-H522 lung): 0.0187 µM and 0.0343 µM | GI50 (NCI/ADR-RES ovarian): 0.019 µM and 0.0175 µM | TGI (NCI/ADR-RES ovarian): 0.0356 µM and 0.034 µM | GI50 (EKVX NSCLC): 0.012 µM and 0.0171 µM | TGI (EKVX NSCLC): 0.0288 µM and 0.0361 µM | GI50 (NCI-H226 lung): 0.0242 µM and 0.0258 µM | TGI (NCI-H226 lung): 0.0591 µM and 0.0751 µM | GI50 (K-562 leukemia): < 0.01 µM | TGI (K-562 leukemia): < 0.01 µM | GI50 (MDA-MB-435 melanoma): 0.0173 µM and 0.0167 µM | TGI (MDA-MB-435 melanoma): 0.0382 µM and 0.0387 µM | GI50 (SK-MEL-28 melanoma): 0.0132 µM and 0.0169 µM | TGI (SK-MEL-28 melanoma): 0.0296 µM and 0.0347 µM | GI50 (BT-549 breast): 0.0193 µM and 0.0182 µM | TGI (BT-549 breast): 0.0375 µM and 0.0364 µM | GI50 (SK-OV-3 ovarian): < 0.01 µM | TGI (SK-OV-3 ovarian): < 0.01 µM | GI50 (M14 melanoma): < 0.01 µM | TGI (M14 melanoma): < 0.01 µM and 0.0228 µM | GI50 (NCI-H23 lung): 0.029 µM and 0.15 µM | TGI (NCI-H23 lung): 0.0854 µM and 0.401 µM | GI50 (OVCAR-3 ovarian): 0.0217 µM and 0.029 µM | TGI (OVCAR-3 ovarian): 0.0539 µM and 0.0826 µM | GI50 (HCT-116 colon): < 0.01 µM and 0.0159 µM | TGI (HCT-116 colon): 0.0248 µM and 0.0398 µM | GI50 (MOLT-4 leukemia): < 0.01 µM | TGI (MOLT-4 leukemia): 0.0128 µM and 0.0168 µM | GI50 (OVCAR-4 ovarian): 0.0205 µM and 0.022 µM | TGI (OVCAR-4 ovarian): 0.0881 µM and 0.0707 µM | GI50 (ACHN renal): < 0.01 µM and 0.0196 µM | TGI (ACHN renal): < 0.01 µM and 0.0431 µM | GI50 (A549 NSCLC): 0.0201 µM and 0.0242 µM | TGI (A549 NSCLC): 0.0428 µM and 0.061 µM | GI50 (HL-60(TB) leukemia): < 0.01 µM | TGI (HL-60(TB) leukemia): < 0.01 µM and 0.0141 µM | GI50 (U251 glioblastoma): < 0.01 µM and 0.0164 µM | TGI (U251 glioblastoma): 0.0229 µM and 0.0335 µM | GI50 (HCC-2998 colon): 0.0224 µM and 0.0514 µM | TGI (HCC-2998 colon): 0.0772 µM and 0.378 µM | GI50 (HOP-62 NSCLC): 0.0182 µM | TGI (HOP-62 NSCLC): 0.0346 µM and 0.0358 µM | GI50 (MDA-MB-231 breast): 0.388 µM and 1.68 µM | TGI (MDA-MB-231 breast): 1.43 µM and 3.46 µM | GI50 (SF-539 CNS): < 0.01 µM | TGI (SF-539 CNS): < 0.01 µM and 0.0205 µM | GI50 (DU-145 prostate): < 0.01 µM | TGI (DU-145 prostate): < 0.01 µM and 0.0294 µM | GI50 (MALME-3M melanoma): 0.016 µM and 0.0198 µM | TGI (MALME-3M melanoma): 0.0358 µM and 0.0411 µM | GI50 (HT29 colon): < 0.01 µM and 0.017 µM | TGI (HT29 colon): 0.0285 µM and 0.0464 µM | GI50 (SNB-75 CNS): < 0.01 µM | TGI (SNB-75 CNS): < 0.01 µM and 0.0143 µM | GI50 (MCF7 breast): < 0.01 µM and 0.0175 µM | TGI (MCF7 breast): 0.028 µM and 0.0477 µM | GI50 (UACC-62 melanoma): 0.0113 µM and 0.0256 µM | TGI (UACC-62 melanoma): 0.0594 µM and 0.0751 µM | GI50 (SNB-19 CNS): < 0.01 µM and 0.013 µM | TGI (SNB-19 CNS): < 0.01 µM and 0.0301 µM | GI50 (SK-MEL-5 melanoma): 0.0245 µM and 0.0333 µM | TGI (SK-MEL-5 melanoma): 0.0916 µM and 0.202 µM | GI50 (HOP-92 NSCLC): < 0.01 µM | TGI (HOP-92 NSCLC): < 0.01 µM and 0.0149 µM | GI50 (IGROV1 ovarian): 0.0197 µM and 0.0203 µM | TGI (IGROV1 ovarian): 0.0409 µM and 0.0438 µM | GI50 (UO-31 renal): < 0.01 µM and 0.0187 µM | TGI (UO-31 renal): < 0.01 µM and 0.0391 µM | GI50 (TK-10 renal): < 0.01 µM | TGI (TK-10 renal): < 0.01 µM | GI50 (CCRF-CEM leukemia): < 0.01 µM | TGI (CCRF-CEM leukemia): 0.0118 µM and 0.0186 µM | GI50 (SW-620 colon): < 0.01 µM and 0.0133 µM | TGI (SW-620 colon): 0.0211 µM and 0.0356 µM | GI50 (SF-295 CNS): 0.0184 µM and 0.0186 µM | TGI (SF-295 CNS): 0.0354 µM and 0.0363 µM | GI50 (A498 renal): < 0.01 µM | TGI (A498 renal): 0.0113 µM and 0.0253 µM | GI50 (NCI-H322M lung): 0.0178 µM and 0.0202 µM | TGI (NCI-H322M lung): 0.037 µM and 0.0435 µM | GI50 (NCI-H460 NSCLC): < 0.01 µM and 0.0109 µM | TGI (NCI-H460 NSCLC): > 100 µM | GI50 (KM12 colon): 0.0256 µM and 0.0287 µM | TGI (KM12 colon): 0.0976 µM and 0.196 µM | GI50 (RXF 393 renal): < 0.01 µM | TGI (RXF 393 renal): < 0.01 µM | GI50 (COLO 205 colon): 0.0285 µM and 0.0297 µM | TGI (COLO 205 colon): 0.0816 µM and 0.141 µM | GI50 (HS 578T breast): 0.022 µM and 0.0259 µM | TGI (HS 578T breast): 0.0601 µM and 0.107 µM
